Legend:
a3b4 nAChRs = a3b4 nAChRs (Homo sapiens, UniProt P30926+P32297); test: Relative potency at a3b4 nAChRs (epibatidine-induced calcium response), cell line not stated; type: cell-based
Experimental: Nicotinic functional assays are performed using the Molecular Devices FLIPR® Calcium 5 Assay Kit. HEK293 cells overexpressing a3β4, a4β2 or α7 (50,000 cells per well in 100 μl growth media) and are plated in clear bottom black walled 96-well microplates and incubated for 24-48 hours at 37° C., 5% CO2 until a 80-90% confluent monolayer is formed. On the day of the assay, 100 μl of Calcium 5 Dye is added to each well. Following addition of dye, cells are incubated at 25° C. for 60 minutes. Following dye loading, 50 μl of a 5× solution of reference or test compound of appropriate concentration range (0.01-30 μM), prepared in 20 mM HEPES pH 7.4 in HBSS, is added to each well. Plates are then transferred to the Molecular Devices Flexstation® which transfers 50 μL of a 5× solution (500 nM) of epibatine to each well to initiate the Ca+2 flux. Additional wells (in quadruplicate) are prepared with no added test or reference ligand for measurement of 100% flux. The RFU (relative fluorescence units) in the presence of the test or reference compounds is then expressed on the percent scale. The percent inhibition of epibatidine induced Ca^+2 flux is calculated as follows: % inhibition=100%−% RFU (relative fluorescence units). The IC50 values for reference and test compounds are obtained by fitting normalized RFU data using Graphpad Prism software.

[1] = CNS penetration across the blood brain barrier; type: in vivo, mice
Experimental: Mice are dosed with compounds. Brain to blood ratios are determined by HPLC and LC/MS/MS analysis following oral administration of the test compounds in mice.

mu opioid receptor (mOR) = target: T1, mu opioid receptor (mOR) (Homo sapiens, UniProt P35372); test: Mu opioid receptor radioligand binding; settings: called weak affinity; read-out: Affinity at mu opioid receptors
T1 construct: expressed in transfected cells; host or cells: CHO or HEK293
T1 sequence (P35372 whole entry): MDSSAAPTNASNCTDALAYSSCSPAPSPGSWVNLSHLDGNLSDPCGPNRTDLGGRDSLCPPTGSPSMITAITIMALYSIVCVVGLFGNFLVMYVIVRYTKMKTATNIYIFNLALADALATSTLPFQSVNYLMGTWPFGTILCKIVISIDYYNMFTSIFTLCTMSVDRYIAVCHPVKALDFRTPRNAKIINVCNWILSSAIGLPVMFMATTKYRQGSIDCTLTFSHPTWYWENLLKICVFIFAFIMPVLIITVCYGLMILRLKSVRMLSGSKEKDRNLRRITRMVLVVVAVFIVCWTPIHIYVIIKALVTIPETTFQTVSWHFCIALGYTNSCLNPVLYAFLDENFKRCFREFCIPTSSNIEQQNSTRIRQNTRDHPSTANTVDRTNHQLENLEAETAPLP
Experimental: Established radioligand binding methods are used to evaluate the ability of the compounds to block reuptake of serotonin and dopamine in membrane preparations of synaptosomes. Equilibrium binding affinity values is determined for each compound at opioid receptors (μ and κ subtypes) and biogenic amine transporters (DAT and SERT). Where possible, binding experiments utilize membranes derived from CHO or HEK293 cells engineered to overexpress the human form of the receptor or transporter of interest. Radiolabeling of opioid receptors, and biogenic amine transporters utilizes conventional radioligands, buffers and incubation conditions according to published assays.
Test compounds, reference compounds and the radioligand (Kd value) are added to binding buffer. Assays are run with test or reference compound over a range of concentration (0.0001-10 uM) in triplicate using a 96-well sample plate containing radioligands specific for the target receptor or transporter. […] Bound radioactivity is counted in a Microbeta scintillation counter. Total bound radioactivity is estimated from triplicate wells containing no test or reference compound, together with nonspecific binding and filter blanks. The average bound radioactivity in the presence of the test compounds is expressed % inhibition=100%−% radioactivity bound. […]

Sequence of a3b4 nAChRs (P30926 22-498): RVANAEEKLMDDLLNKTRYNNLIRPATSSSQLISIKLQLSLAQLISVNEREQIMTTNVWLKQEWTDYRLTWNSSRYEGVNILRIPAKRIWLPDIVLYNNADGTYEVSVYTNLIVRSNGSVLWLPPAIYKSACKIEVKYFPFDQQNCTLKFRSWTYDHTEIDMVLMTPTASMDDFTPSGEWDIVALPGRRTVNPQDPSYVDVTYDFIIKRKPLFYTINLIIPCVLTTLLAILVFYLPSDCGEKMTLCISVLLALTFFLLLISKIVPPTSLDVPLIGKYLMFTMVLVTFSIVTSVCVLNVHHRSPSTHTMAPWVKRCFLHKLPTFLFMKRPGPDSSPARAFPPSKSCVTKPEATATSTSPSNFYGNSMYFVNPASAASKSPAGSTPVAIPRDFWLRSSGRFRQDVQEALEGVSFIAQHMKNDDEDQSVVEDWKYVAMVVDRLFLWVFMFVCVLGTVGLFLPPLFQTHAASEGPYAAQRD
Sequence of a3b4 nAChRs (P32297 32-505): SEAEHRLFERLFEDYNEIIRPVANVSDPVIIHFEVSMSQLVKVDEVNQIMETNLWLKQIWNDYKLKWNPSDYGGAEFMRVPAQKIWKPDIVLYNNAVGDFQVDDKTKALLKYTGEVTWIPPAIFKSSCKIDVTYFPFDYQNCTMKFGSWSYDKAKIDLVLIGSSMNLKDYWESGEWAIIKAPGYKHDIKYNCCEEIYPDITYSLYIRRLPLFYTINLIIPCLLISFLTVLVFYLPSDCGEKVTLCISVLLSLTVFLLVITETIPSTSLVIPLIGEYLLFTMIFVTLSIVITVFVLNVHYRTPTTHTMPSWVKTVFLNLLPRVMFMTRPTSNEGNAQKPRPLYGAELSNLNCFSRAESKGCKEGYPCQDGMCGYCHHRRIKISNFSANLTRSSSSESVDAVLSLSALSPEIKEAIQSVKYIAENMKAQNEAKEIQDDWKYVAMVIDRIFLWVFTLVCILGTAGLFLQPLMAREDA

| Molecule | Ratio from 18-MC (relative potency at a3b4 nAChRs) (a3b4 nAChRs; ratio to 18-MC = 1, lower is more potent) | Crossing of the BBB / concentration in brain [1] | Potency as inhibitor of the epibatidine-induced calcium response in a3b4 nAChRs, in words (a3b4 nAChRs; compared with 18-MC and noribogaine) | Ki (mu opioid receptor (mOR)) |
| --- | --- | --- | --- | --- |
| COCC[C@H]1CC2CN3CCc4c([nH]c5ccccc45)[C@](C(=O)OC)(C2)[C@H]13 [Compound 18-MC, 18-methoxycoronaridine] | 1 | cross the BBB and reach micromolar concentrations in brain |  |  |
| Ibogaine |  |  | more potent inhibitors than 18-MC |  |
| CC[C@H]1CC2C[C@H]3c4[nH]c5ccc(O)cc5c4CCN(C2)C13 [Noribogaine, 12-hydroxyibogamine] |  | cross the BBB and reach micromolar concentrations in brain |  | 900 nM |

From US9045481B2 (priority 2012, dated 2015)
